Reference: paper PMC8840040, “Pharmacokinetic Characterization of the DDAH1 Inhibitors ZST316 and ZST152 in Mice Using a HPLC-MS/MS Method” (Molecules, 2022)
Where two headings read alike, the source gives them in different places.

How the values were obtained:
[1] = Urinary metabolites in 24 h urine by HPLC-MS/MS; assay type: in vivo, FVB mice
Procedure: The assessment of the urinary elimination after oral and intravenous administration, in the urine fraction collected 24 h post dose, is reported in Table 6. […] To further investigate this issue, we searched for the presence of urinary metabolites in the 24 h urine samples in one mouse per treatment group. We identified at least eight molecules most likely originating from the parent compounds (Table 7; see Supplementary Figure S1 for the hypothesized structures).
Mice were treated with ZST316 and ZST152 using a dose of 60 mg/Kg (oral gavage) and 30 mg/Kg (intravenous bolus). For pharmacokinetic sampling, blood was collected at 15 and 30 min, and 1, 3, 8, and 24 h post dose. Three mice were analyzed per each time point. After the animals were anesthetized with isoflurane, the blood was drained from the retro-orbital plexus into heparinized tubes, and then centrifuged for 10 min at 4000× g at 4 °C to separate plasma. A 24-h urine fraction was collected in three mice for each drug and route of administration. Plasma and urine samples were stored at −20 °C until analysis by HPLC-MS/MS.
(§1) […] chromatography was performed using a series 200 HPLC system (Perkin Elmer, Waltham, MA, USA) under gradient conditions with separation on a HILIC column, 3 µm, 100 A, 2.1 × 150 mm (Waters, Milford, MA, USA), coupled with a 3 µm, 3.9 × 5.0 mm guard column of the same material at the flow rate of 0.2 mL/min. Gradient features: 10% mobile phase (MP) A (NH4HCO2 10 mM, 10% CH3CN, 0.1% HCOOH) and 90% MP B (CH3CN, 0.1% HCOOH) as the initial constant condition; then to 90% MP A in 6 min and the constant condition for 1.5 min. Return to the start condition in 0.5 min and conditioning for 5.5 min. Total run time: 13.5 min. Mass spectrometric detection was performed using an API 4000 triple quadrupole mass spectrometer (SCIEX, Framingham, MA, USA) supplied with a Turbo Ion Spray source set at 350 °C and −4200 V, analyzing biological samples with electrospray ionization (ESI) operating in negative ion mode. Purified air was used as nebulizer gas (Gas 1) and heater gas (Gas 2) and N2 was used as curtain gas and collision activated dissociation gas. They were set to 40, 50, 20, and 4 instrument units (psi), respectively. The declustering potential (DP) was set at −119 V and the collision exit potential (CXP) at –10 V. All parameters of the source were defined by direct infusion of ZST316 and ZST152 1 µg/mL in mobile phase B. The final quantification was carried out in Selected Reaction Monitoring (SRM) with the following transitions: m/z 307.9 → 208.0 (collision energy of −29.5 eV) for ZST316 and m/z 271.9 → 170.9 (collision energy −24.7 eV) for ZST152 (Figure 2 and Figure 3). Data were processed with the software package Analyst 1.6.2 (AB SCIEX).

[2] = system: triple-negative breast cancer cells; details: cited from earlier work; for suppression of vasculogenic mimicry: in vitro, triple-negative breast cancer cells
cancer cells = details: cited from earlier work; for degradation in the culture media: culture media of cancer cell experiments
[3] = Plasma pharmacokinetics and urinary elimination after acute and chronic intraperitoneal administration; assay type: in vivo, FVB mice
Procedure: (§2) In this study, 18 mice received a single dose and were sampled within 24 h, and the other 18 were treated every day for three weeks (qdx21) and sampled on day 21. Mice were monitored daily for clinical signs of toxicity and distress, and body weight was measured at least twice a week. Blood samples were collected after both treatment regimens at 15 and 30 min, and 1, 3, 8, and 24 h post dose. Three mice were analyzed for each time point. After the animals were anesthetized with isoflurane, the blood was drained from the retro-orbital plexus into heparinized tubes, and then centrifuged for 10 min at 4000 g at 4 °C to separate plasma. A 24-h urine fraction was collected in three mice for each drug and route of administration. Plasma and urine samples were stored at −20 °C until analysis by HPLC-MS/MS.
as §1
Pharmacokinetic parameters and descriptive statistics (means, standard deviations, percentages) were calculated using Phoenix WinNonlin V 8.3 (Certara Inc., Princeton, NJ, USA).

[4] = Tolerability of chronic intraperitoneal treatment (clinical signs, body weight); assay type: in vivo; details: i.p. 30 mg/Kg/day for three weeks
Procedure: as §2

[5] = after intravenous ZST152, total dose 1.410 mg, mouse #1, 24 h urine
[6] = after oral ZST152, total dose 1.158 mg, mouse #3, 24 h urine
[7] = FVB, mouse, plasma, ip, i.p. 30 mg/Kg, acute
[8] = FVB, mouse, plasma, ip, i.p. 30 mg/Kg/day, chronic
[9] = after intravenous ZST316, total dose 1.326 mg, mouse #1, 24 h urine
[10] = after oral ZST316, total dose 1.308 mg, mouse #3, 24 h urine

In the case of `COCCNC(=N)NCCC[C@H](N)c1noc(=O)[nH]1` [ZST152], the “% of Dose recovered in urine” value [1, 5] is reported as 10.5%, the “Amount Recovered in urine” value [1, 5] is reported as 148 µg and the “% of Dose recovered in urine” value [1, 6] is reported as 6.5%. For the same compound, the “Amount Recovered in urine” value [1, 6] was 75.0 µg, the “suppression of vasculogenic mimicry” value [2] was “suppress vasculogenic mimicry” and the “penetration of the cell membrane of cancer cells and intracellular DDAH1 inhibition” value (cancer cells) was “able to successfully penetrate the cell membrane of cancer cells and inhibit DDAH1 intracellularly”. For the same compound, the “degradation in the culture media” value (cancer cells) was “did not significantly degrade”.
`COCCNC(=N)NCCC[C@H](N)C(=O)NS(C)(=O)=O` [ZST316] showed an AUC(0-t) ([3]; FVB, mouse, plasma, ip, 30 mg/kg, i.p. 30 mg/Kg, acute, read-out: AUC 0-8h) of 14300 ng·h/mL, an AUC(0-t) ([3]; FVB, mouse, plasma, ip, 30 mg/kg, i.p. 30 mg/Kg, acute, read-out: AUC 0-last) of 14400 ng·h/mL and an AUC(0-t) ([3]; FVB, mouse, plasma, ip, 30 mg/kg/day, i.p. 30 mg/Kg/day, chronic, read-out: AUC 0-8h) of 12300 ng·h/mL. It also gave an AUC(0-t) ([3]; FVB, mouse, plasma, ip, 30 mg/kg/day, i.p. 30 mg/Kg/day, chronic, read-out: AUC 0-last) of 12600 ng·h/mL, an AUC(0-inf) [3, 7] of 14500 ng·h/mL and a Tmax [3, 7] of 0.25 h. The half-life [3, 7] was 5.7 h, the Cmax ([3]; FVB, mouse, plasma, ip, i.p. 30 mg/Kg, acute (single dose)) was 40200 ng/mL and the bioavailability ([3]; FVB, mouse, plasma, ip, i.p. 30 mg/Kg, acute, read-out: F % (bioavailability)) was 67%. For the same compound, the Cmax at 21 days ([3]; FVB, mouse, plasma, ip, i.p. 30 mg/Kg/day for three weeks, chronic (day 21)) was 33600 ng/mL, the AUC(0-inf) [3, 8] was 12700 ng·h/mL and the Tmax [3, 8] was 0.25 h. For the same compound, the half-life [3, 8] was 8.4 h, the bioavailability at 21 days ([3]; FVB, mouse, plasma, ip, i.p. 30 mg/Kg/day, chronic, read-out: F % (bioavailability)) was 59% and the “24-h urinary excretion (% of dose)” value ([3]; i.p. 30 mg/Kg, acute) was 56.1 % of dose. The “urinary excretion, % of the administered dose” value ([3]; i.p. 30 mg/Kg, acute/chronic not distinguished) was 55%, the “accumulation after chronic treatment” value ([3]; i.p. 30 mg/Kg/day for three weeks, 30 mg/kg/day) was “no accumulation was observed” and the “24-h urinary excretion (% of dose)” value ([3]; i.p. 30 mg/Kg/day, chronic) was 54.1 % of dose. The “% of Dose recovered in urine” value [1, 9] was 3.1%, the “Amount Recovered in urine” value [1, 9] was 41.2 µg and the “% of Dose recovered in urine” value [1, 10] was 2.2%. The “Amount Recovered in urine” value [1, 10] was 28.9 µg, the “tolerability of chronic treatment” value [4] was “well tolerated” and the “body weight during treatment vs. untreated animals” value ([4]; 30 mg/kg/day) was “no changes in body weight vs. untreated animals”. For the same compound, the “clinical signs of toxicity or distress” value ([4]; 30 mg/kg/day) was “no clinical signs of toxicity or distress were noticed”, the “suppression of in vitro vasculogenic mimicry and migration” value ([2]; MDA-MD-231 cells, ref recent demonstration by our group) was “suppresses in vitro vasculogenic mimicry and migration” and the “suppression of vasculogenic mimicry” value [2] was “suppress vasculogenic mimicry”. The “penetration of the cell membrane of cancer cells and intracellular DDAH1 inhibition” value (cancer cells) was “able to successfully penetrate the cell membrane of cancer cells and inhibit DDAH1 intracellularly” and the “degradation in the culture media” value (cancer cells) was “did not significantly degrade”.
